Measured values taken from patent US20030130343A1, “Fat accumulation-modulating compounds” (AdipoGenix, Inc., priority 2001, published 2003).

What was measured:
[1] = system: primary human subcutaneous preadipocytes; experiment: High throughput screening of compound efficacy: fluorescent fatty acid (FA*) accumulation in differentiating human preadipocytes; type: cell-based; design: key to Relative Efficacy: “+++” designates a greater in vitro efficacy than “++”; “++”, which in turn is greater than “+”; “+”; details: for Relative Efficacy: inhibitors of fatty acid accumulation into differentiating adipocytes at a concentration of 100 nM
Procedure: Protocol for High Throughput Screening of Compound Efficacy on Human Preadipocytes Up to five cell strains of banked primary human subcutaneous preadipocytes were used for high throughput screening. […] Cells were split up to four times to produce enough cells for screening. […] On day zero, cells were incubated with growth medium to induce differentiation of preadipocytes into adipocytes (characterized by cell rounding, formation of triglyceride droplets, etc.). Growth medium was changed every three days. On day six, cells were incubated in triplicate with test compounds at various concentrations. […] Cell plates were prewashed with FAB+, and then FA* was added. Cells were incubated with FA* for four hours, and then postwashed with FAB+ to remove unincorporated FA*. Cellular fluorescence of triglyceride droplets that have incorporated FA* was measured on a microplate reader. Efficacy of compounds on inhibiting FA* accumulation was determined by the following calculation: […]

[2] = system: primary human subcutaneous preadipocytes; details: at 10 μM; Alamar Blue
Procedure: Subsequent determination of compound toxicity was measured by incubating cells with Alamar Blue (an indicator of cellular viability, purchased from BioSource International Inc., Camarillo, Calif., USA) for three to four hours before measuring fluorescence of the reduced compound. Toxicity of compounds was determined by the following calculation:
% Toxicity=100−(sample fluorescence/negative control fluorescence*100)

[3] = system: mice; details: single injections; cited from earlier work

Compound	Relative Efficacy [1]	also measured
N#CC(C#N)=NNc1ccc(OC(F)(F)F)cc1 [FCCP, carbonyl cyanide p-(trifluoromethoxy)-phenylhydrazone]	–	Emax at 10 µM ([1]; Homo sapiens, at 10 μM, read-out: % Efficacy (inhibiting FA* accumulation)): 100%; % Toxicity [2]: 100%
Cc1cc(NC(=O)c2cc([N+](=O)[O-])ccc2Cl)no1 [AGX-0114]	++	–
O=C(Nc1cccnc1)c1cc([N+](=O)[O-])ccc1Cl [AGX-0105]	+++	–
O=C(Nc1ccncc1)c1cc([N+](=O)[O-])ccc1Cl [AGX-0104]	+++	–
C=C1C(=O)OC(CCCCCCCC)C1C(=O)O (stereo not drawn) [C75]	–	ate less than untreated littermates consumed [3]: 90%
